Legend:
H1975-HGF xenografts = assay: Antitumor activity in H1975-HGF human lung carcinoma xenograft model; type: in vivo, female athymic nude mice; conditions: for TGI as compared to controls: Day 28, 10 mg/kg each agent, TKI po qd x 21, JNJ-372 ip biwk x 3
[1] = Body weight and clinical signs of nude mice bearing H1975-HGF xenografts; type: in vivo, female athymic nude mice; conditions: for body weight change compared to the control group: H1975-HGF-tumor-bearing mice, 10 mg/kg, JNJ-372 at Day 28, TKI-containing groups p<0.05; for day found dead or euthanized / mice found dead or euthanized due to negative clinical signs: H1975-HGF study; for mice found dead or euthanized due to negative clinical signs: n=10/group, unclear whether due to tumor burden or treatment
Procedure: (§1) Female athymic nude mice were used in the studies (n=10/group). Treatment began when SC tumors reached approximately 100 to 300 mm^3 in size. and dosing was initiated according to the treatment plan summarized in Table 2. […] The control group was dosed with vehicle orally daily for 21 days, and the isotype control antibody was dosed twice a week IP for 3 weeks. Mice were monitored for body weight and tumor volume up to Day 95, and were euthanized when individual tumor volume reached 2,000 mm^3 or at study conclusion.
(§2) Relative body weight of individual mice was calculated using the formula: (W/W0)×100, where ‘W’ represents body weight on a particular day, and ‘W0’ represents body weight at initiation of treatment. Body weight was graphically represented as mean % of initial body weight±SEM.
Tumor volume and body weight data were graphically represented using Prism software (GraphPad, version 7). Statistical significance was evaluated for all pairwise comparisons on the last day of the study when at least eight mice remained in each group. Differences between groups were considered significant when p≤0.05. […] Logarithmic transformation (base 10) was performed if individual longitudinal response trajectories were not linear. The information derived from this model was used to make pairwise treatment comparisons to the control group or between all the treatment groups.
The experimental design was as described in Example 1 except that H1975 cells stably transfected to express hepatocyte growth factor (HGF) (H1975-HGF cells) were used in the studies and hereafter referred to as H1975-HGF-CNT.

EGFR-mutated NSCLC = assay: FIH dose escalation study of lazertinib monotherapy; type: in vivo, human
Procedure: The safety profile and preliminary efficacy of both agents in EGFR-mutated NSCLC population is based upon clinical experience of approximately 100 subjects in each study, including those enrolled into expansion cohorts at their respective RP2D.
In the current monotherapy dosing regimen, lazertinib is administered as a daily oral therapy, while JNJ-61186372 is administered intravenously weekly during Cycle 1, and then every other week thereafter, beginning with Cycle 2 Day 1.

[2] = Body weight and clinical signs of nude mice bearing H1975 xenografts; type: in vivo, female athymic nude mice; conditions: for body weight change compared to the control group: H1975-xenograft-bearing nude mice, 10 mg/kg, JNJ-372 at Day 29, TKI-containing groups p<0.05; for day of euthanasia due to negative clinical signs / animals euthanized due to negative clinical signs: H1975 study; for animals euthanized due to negative clinical signs: n=10/group, unclear whether due to tumor burden or treatment
Procedure: as §1, §2
Statistical significance was evaluated for all pairwise comparisons on the last day of the study when at least eight mice remained in each group. Differences between groups were considered significant when p≤0.05. Statistical significance of tumor volume and body weight was calculated using the Linear Mixed-Effects analysis in R software version 3.4.2 (using Janssen's internally developed Shiny application version 3.3), with treatment and time as fixed effects and animal as random effect. Logarithmic transformation (base 10) was performed if individual longitudinal response trajectories were not linear. The information derived from this model was used to make pairwise treatment comparisons to the control group or between all the treatment groups.

[3] = system: H1975 human lung xenografts; assay: Antitumor activity in H1975 human lung carcinoma xenograft model; conditions: for TGI as compared to controls: Day 28, 10 mg/kg each agent, TKI po qd x 21, JNJ-372 ip biwk x 3
Procedure: The animals were fed ad libitum water (reverse osmosis, 1 ppm Cl) and NIH 31 Modified and Irradiated Lab Diet® consisting of 18.0% crude protein, 5.0% crude fat, and 5.0% crude fiber. The mice were housed on irradiated Enrich-o'Cobs™ Laboratory Animal Bedding in static microisolators on a 12-hour light cycle at 20-22° C. (68-72° F.) and at 40-60% humidity. All studies complied with the recommendations of the Guide for Care and Use of Laboratory Animals with respect to restraint, husbandry, surgical procedures, feed and fluid regulation, and veterinary care.
NCI-H1975 cells were grown to mid-log phase in RPMI 1640 medium containing 10% fetal bovine serum, 2 mM glutamine, 100 units/mL sodium penicillin G, 25 μg/mL gentamicin, and 100 μg/mL streptomycin sulfate. The tumor cells were cultured in tissue culture flasks in a humidified incubator at 37° C., in an atmosphere of 5% CO2 and 95% air.
On the day of implant, the NCI-H1975 cells were harvested during log phase growth and resuspended in phosphate buffered saline (PBS) at a concentration of 5×10^7 cells/mL. Xenografts were initiated by subcutaneously implanting 5×10^6 NCI-H1975 cells per animal (0.1 mL suspension) into the right flank of each test animal and tumors were monitored as their volumes approached the target range of 150-200 mm^3. Fifteen days later, animals were sorted into bins by calculated tumor volumes based on vernier caliper measurements of tumor width and length to the nearest mm. The animals were then heuristically sorted among treatment groups, balancing the distribution of small to large sized tumor volumes among group assignments. […] Tumor size, in mm3, was calculated using the following formula: Tumor Volume=(w^2×l)/2 where w=width and l=length, in mm, of the tumor. […]
Female athymic nude mice were used in the studies (n=10/group). […] Mice were monitored for body weight and tumor volume up to Day 95, and were euthanized when individual tumor volume reached 2,000 mm^3 or at study conclusion.
Tumor volume data were graphically represented as the mean tumor volume±SEM. Tumor volume was calculated using the formula: tumor volume (mm^3)=(D×d2)/2; where ‘D’ represents the larger diameter, and ‘d’ the smaller diameter of the tumor as determined by caliper measurements.
The % TGI was defined as the difference between mean tumor burden of the treated and control group, calculated as % ΔTGI=([(TVc−TVc0)−(TVt−TVt0)]/(TVc−TVc0))×100 where ‘TVc’ is the mean tumor burden of a given control group, ‘TVc0’ is the mean initial tumor burden of a given control group, ‘TVt’ is the mean tumor burden of the treated group, and ‘TVt0’ is the mean initial tumor burden of the treated group.

mouse EGFR = mouse EGFR (Mus musculus, UniProt Q01279); assay: Binding of JNJ-372 to mouse EGFR
mouse c-Met = mouse c-Met (Mus musculus, UniProt P16056); assay: Binding of JNJ-372 to mouse c-Met
Chain of mouse c-Met (P16056 25-1379): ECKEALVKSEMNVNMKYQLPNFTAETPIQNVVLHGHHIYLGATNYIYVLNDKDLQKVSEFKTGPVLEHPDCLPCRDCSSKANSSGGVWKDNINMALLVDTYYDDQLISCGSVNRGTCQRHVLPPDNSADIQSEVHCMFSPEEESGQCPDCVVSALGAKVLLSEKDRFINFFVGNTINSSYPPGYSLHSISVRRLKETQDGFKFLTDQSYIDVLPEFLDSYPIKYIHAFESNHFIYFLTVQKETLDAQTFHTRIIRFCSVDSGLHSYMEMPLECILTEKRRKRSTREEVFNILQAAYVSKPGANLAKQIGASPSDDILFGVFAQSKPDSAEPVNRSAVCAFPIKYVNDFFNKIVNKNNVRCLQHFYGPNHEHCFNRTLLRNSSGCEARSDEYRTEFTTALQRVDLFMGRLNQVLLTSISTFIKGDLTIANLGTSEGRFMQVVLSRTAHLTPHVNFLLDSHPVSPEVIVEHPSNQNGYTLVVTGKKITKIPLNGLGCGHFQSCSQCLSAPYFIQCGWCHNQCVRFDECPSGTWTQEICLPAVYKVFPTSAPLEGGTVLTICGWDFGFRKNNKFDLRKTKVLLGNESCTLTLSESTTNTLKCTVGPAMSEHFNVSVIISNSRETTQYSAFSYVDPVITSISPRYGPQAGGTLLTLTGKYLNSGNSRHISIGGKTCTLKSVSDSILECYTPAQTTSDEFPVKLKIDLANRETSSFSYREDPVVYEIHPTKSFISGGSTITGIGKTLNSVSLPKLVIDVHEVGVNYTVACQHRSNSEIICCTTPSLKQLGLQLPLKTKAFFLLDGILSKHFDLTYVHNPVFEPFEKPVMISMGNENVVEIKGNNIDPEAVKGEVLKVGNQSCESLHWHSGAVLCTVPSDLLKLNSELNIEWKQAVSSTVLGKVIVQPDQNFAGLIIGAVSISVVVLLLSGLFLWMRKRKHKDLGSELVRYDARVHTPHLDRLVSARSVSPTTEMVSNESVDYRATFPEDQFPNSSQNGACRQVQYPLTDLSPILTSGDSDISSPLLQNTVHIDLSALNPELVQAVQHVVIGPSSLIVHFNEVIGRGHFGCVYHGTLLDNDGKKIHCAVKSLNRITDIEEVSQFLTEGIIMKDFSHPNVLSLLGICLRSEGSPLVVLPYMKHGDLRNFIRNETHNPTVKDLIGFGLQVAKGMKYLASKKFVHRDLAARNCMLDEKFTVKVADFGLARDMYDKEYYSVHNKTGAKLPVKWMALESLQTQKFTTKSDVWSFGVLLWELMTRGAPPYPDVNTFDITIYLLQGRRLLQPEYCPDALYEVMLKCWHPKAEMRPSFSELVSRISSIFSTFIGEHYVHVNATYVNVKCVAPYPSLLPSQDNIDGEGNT

[4] = n=10/group, 10 mg/kg each agent

Row | Compound | TGI as compared to controls (H1975-HGF xenografts) [%] | CRs (complete tumor regression) (H1975-HGF xenografts; [4]) | body weight change compared to the control group [1] | dose from which clinical activity in the targeted population was demonstrated (EGFR-mutated NSCLC; EGFR-mutated NSCLC) [mg] | DLTs (EGFR-mutated NSCLC; through doses up to 320 mg) | body weight change compared to the control group [2] | day of euthanasia due to negative clinical signs [2] [days] | animals euthanized due to negative clinical signs [2] | TGI as compared to controls [3] [%] | CRs (complete tumor regression, tumor not measurable on last day of analysis) [3, 4] | day found dead or euthanized [1] [days] | mice found dead or euthanized due to negative clinical signs [1] | binding to mouse EGFR (mouse EGFR) | binding to mouse c-Met (mouse c-Met)
1 | C=CC(=O)Nc1cc(Nc2nccc(-n3cc(CN(C)C)c(-c4ccccc4)n3)n2)c(OC)cc1N1CCOCC1 [Lazertinib, N-(5-(4-(4-((dimethylamino)methyl)-3-phenyl-1H-pyrazol-1-yl)pyrimidin-2-ylamino)-4-methoxy-2-morpholinophenyl)acrylamide] | 75 | 2 of 10 | some transient body weight loss | 240 | no DLTs were observed | some transient body weight loss | 21 | One | 112 | 1 of 10 | – | – | – | –
2 | C=CC(=O)Nc1cc(Nc2nccc(-c3cn(C)c4ccccc34)n2)c(OC)cc1N(C)CCN(C)C [Osimertinib, reference compound] | 57 | – | some transient body weight loss | – | – | some transient body weight loss | – | – | 111 | – | 51 | One | – | –
3 | JNJ-372 | 70 | – | did not elicit significant body weight loss | – | – | did not elicit significant body weight loss | 43 | One | 86 | – | 53 | One | does not bind | does not bind

Source: patent US11879013B2, “Combination therapies with bispecific anti-EGFR/c-Met antibodies and third generation EGFR tyrosine kinase inhibitors” (Janssen Biotech, Inc., priority 2019, dated 2024)
